Legend:
human orexin-1 receptor = biological target: T1, human orexin-1 receptor (Homo sapiens, UniProt O43613); experiment: Intracellular calcium (FLIPR) antagonist assay, CHO cells expressing human orexin-1 receptor, 3 nM orexin-A; assay type: cell-based; settings: 1 uM compound, orexin-A 3 nM; for inhibition at 1 µM: CHO, read-out: OXIR % Inh. @ 1 uM
T1 construct: expressed in transfected cells; host or cells: CHO cells (G418 selection)
T1 sequence (O43613 1-425): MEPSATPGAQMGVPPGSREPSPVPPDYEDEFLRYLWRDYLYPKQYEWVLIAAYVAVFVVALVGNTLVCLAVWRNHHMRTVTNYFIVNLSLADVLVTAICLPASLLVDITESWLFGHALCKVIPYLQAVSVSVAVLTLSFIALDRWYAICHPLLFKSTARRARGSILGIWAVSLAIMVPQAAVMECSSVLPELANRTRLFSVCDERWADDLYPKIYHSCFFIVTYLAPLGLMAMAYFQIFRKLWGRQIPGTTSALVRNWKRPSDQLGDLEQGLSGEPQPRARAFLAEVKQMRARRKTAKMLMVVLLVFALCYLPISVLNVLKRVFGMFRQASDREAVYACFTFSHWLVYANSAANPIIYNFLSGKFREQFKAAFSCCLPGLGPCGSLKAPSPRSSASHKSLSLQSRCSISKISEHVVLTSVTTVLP
Experimental: (§1) Antagonistic activities on both orexin receptors (i.e., to identify Orexin Receptor Antagonists) have been measured for each example compound using the in vitro assays (intracellular calcium measurements) as described herein. Other assays may also be used to identify Orexin Receptor Antagonists as would be understood by those of ordinary skill in the art. Chinese hamster ovary (CHO) cells expressing the human orexin-1 receptor and the human orexin-2 receptor, respectively, are grown in culture medium (Ham F-12 with L-Glutamine) containing 300 μg/mL G418, 100 U/mL penicillin, 100 μg/mL streptomycin and 10% heat inactivated fetal calf serum (FCS). The cells are seeded at 20′000 cells/well into 384-well black clear bottom sterile plates (Greiner). The seeded plates are incubated overnight at 37° C. in 5% CO2. Human orexin-A as an agonist is prepared as 1 mM stock solution in MeOH: water (1:1), diluted in HBSS containing 0.1% bovine serum albumin (BSA), NaHC03: 0.375 g/L and 20 mM HEPES for use in the assay at a final concentration of 3 nM.
(§2) Antagonists were prepared as 10 mM stock solution in DMSO, then diluted in 384-well plates using DMSO followed by a transfer of the dilutions into in HBSS containing 0.1% bovine serum albumin (BSA), NaHC03: 0.375 g/L and 20 mM HEPES. On the day of the assay, 50 μL of staining buffer (HBSS containing 1% FCS, 20 mM HEPES, NaHC03: 0.375 g/L, 5 mM probenecid (Sigma) and 3 μM of the fluorescent calcium indicator fluro-4 AM (1 mM stock solution in DMSO, containing 10% pluronic) is added to each well. The 384-well cell-plates are incubated for 50 min at 37° C. in 5% C02 followed by equilibration at RT for 30 min before measurement. Within the Fluorescent Imaging Plate Reader (FLIPR Tetra, Molecular Devices), potential Orexin Receptor Antagonists were added to the plate in a volume of 10 μl/well, incubated for 120 min and finally 10 μL/well of agonist is added. Fluorescence was measured for each well at 1 second intervals, and the height of each fluorescence peak compared to the height of the fluorescence peak induced by 3 nM orexin-A with vehicle in place of antagonist. The IC50 value (the concentration of compound needed to inhibit 50% of the agonistic response) was determined and normalized using the obtained IC50 value of an on-plate reference compound. Optimized conditions were achieved by adjustment of pipetting speed and cell splitting regime. The calculated IC50 values fluctuate depending on the daily cellular assay performance, as is known to those skilled in the art. In the case where IC50 values have been determined several times for the same compound, the geometric mean has been given.

human orexin-2 receptor = biological target: T2, human orexin-2 receptor (Homo sapiens, UniProt O43614); experiment: Intracellular calcium (FLIPR) antagonist assay, CHO cells expressing human orexin-2 receptor, 3 nM orexin-A; assay type: cell-based; settings: 1 uM compound, orexin-A 3 nM; for inhibition at 1 µM: CHO, read-out: OX2R % Inh. @ 1uM
T2 construct: expressed in transfected cells; host or cells: CHO cells (G418 selection)
T2 sequence (O43614 1-444): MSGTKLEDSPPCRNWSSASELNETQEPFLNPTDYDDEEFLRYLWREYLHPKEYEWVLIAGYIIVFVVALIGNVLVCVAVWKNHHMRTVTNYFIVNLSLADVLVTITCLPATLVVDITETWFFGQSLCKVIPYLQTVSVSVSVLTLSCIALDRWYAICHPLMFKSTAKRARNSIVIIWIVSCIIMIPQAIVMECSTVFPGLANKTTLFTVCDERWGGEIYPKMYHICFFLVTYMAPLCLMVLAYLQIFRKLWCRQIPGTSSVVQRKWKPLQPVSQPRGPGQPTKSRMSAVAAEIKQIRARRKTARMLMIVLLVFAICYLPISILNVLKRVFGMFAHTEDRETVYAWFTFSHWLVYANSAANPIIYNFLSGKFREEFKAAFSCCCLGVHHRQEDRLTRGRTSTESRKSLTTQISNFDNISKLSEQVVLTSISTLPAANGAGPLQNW
Experimental: as §1, §2

Row | inhibition at 1 µM (human orexin-1 receptor) | inhibition at 1 µM (human orexin-2 receptor) | OXIR % Inh. @ 1 uM (human orexin-1 receptor) | OX2R % Inh. @ 1uM (human orexin-2 receptor) | Compound
1 | 28% | 65% |  |  | Cc1cc(C)nc(N2CC[C@@H](C)N(C(=O)c3c(-c4ccccc4)nn4c3COCC4)CC2)n1 [Example 72]
2 |  |  | 36% | 33% | COc1ccc(N2CC[C@@H](C)N(C(=O)c3c(-c4ccccn4)nn4ccccc34)CC2)nc1 [Example 93]
3 | 95% | 80% |  |  | C[C@@H]1CCN(c2cnc(C(F)(F)F)cn2)CCN1C(=O)c1c(-c2ccccc2)nn2ccccc12 [Example 90]
4 | 35% | 23.6% |  |  | O=C(c1c(-c2ccccc2)nc2cc(F)ccn12)N1CC2CN(c3ccc(C(F)(F)F)cn3)CC2C1 (stereo not drawn) [Example 36]
5 | 40.4% | 68% |  |  | Cc1cc(C)nc(N2CC3CN(C(=O)C4C(c5ccccc5)=NN5C=CC=CC45)CC3C2)n1 (stereo not drawn) [Example 42]
6 | -5.54% | 12.8% |  |  | Cc1cc(C)nc(N2CC3CN(C(=O)c4c(-c5ccccc5F)nn5c4COCC5)CC3C2)n1 (stereo not drawn) [Example 49]
7 | 62.1% | 32.2% |  |  | COc1ccc(N2CC[C@@H](C)N(C(=O)c3c(-c4ccccc4)nc4ccccn34)CC2)nc1 [Example 20]
8 | 38.7% | 37.1% |  |  | COc1ccc(N2CC[C@@H](C)N(C(=O)c3c(-c4ccccc4)nn4ccccc34)CC2)cn1 [Example 15]
9 | 97% | 37% |  |  | C[C@@H]1CCN(c2ccc(C(F)(F)F)cn2)CCN1C(=O)c1nc2ccccn2c1-c1ccccc1 [Example 55]
10 | 15% | 28.3% |  |  | COc1ccc(N2CC[C@@H](C)N(C(=O)c3c(-c4ccccc4)nc4ccccn34)CC2)cn1 [Example 22]
11 | 78.2% | 27.1% |  |  | O=C(c1c(-c2ccccc2F)nn2ccccc12)N1CC2CN(c3ccc(C(F)(F)F)cn3)CC2C1 (stereo not drawn) [Example 45]
12 | 99% | 80% |  |  | C[C@@H]1CCN(c2nc3cc(Cl)ccc3o2)CCN1C(=O)c1c(-c2ccccc2)nn2cccnc12 [Example 65]
13 |  |  | 19.54% | 34.14% | Cc1cc(C)nc(N2CC3CN(C(=O)c4c(-c5ccccc5F)nc5ccccn45)CC3C2)n1 (stereo not drawn) [Example 29]
14 | 38% | 16% |  |  | COc1ccc(N2CC[C@@H](C)N(C(=O)c3nc4ccccn4c3-c3ccccc3)CC2)nc1 [Example 77]
15 | 45% | 56% |  |  | Cc1cc(C)nc(N2CC[C@@H](C)N(C(=O)c3nn4cccnc4c3-c3ccccn3)CC2)n1 [Example 99]
16 | 18.3% | 36.6% |  |  | Cc1cc(C)nc(N2CC3CN(C(=O)c4c(-c5ccccc5F)nc5ccccn45)CC3C2)n1 (stereo not drawn) [Example 28]
17 | 14.9% |  |  | 29.13% | Cc1cc(C)nc(N2CC3CN(C(=O)c4c(-c5ccc(F)cc5)nn5c4COCC5)CC3C2)n1 (stereo not drawn) [Example 39]
18 | 89% | 63% |  |  | C[C@@H]1CCN(c2cnc(C(F)(F)F)cn2)CCN1C(=O)c1nn2ccccc2c1-c1ccccc1 [Example 86]
19 | 53.9% | 14.6% |  |  | O=C(c1c(-c2ccc(F)cc2)nn2ccccc12)N1CC2CN(c3ccc(C(F)(F)F)cn3)CC2C1 (stereo not drawn) [Example 46]
20 | 27% | 44% |  |  | Cc1cc(C)nc(N2CC[C@@H](C)N(C(=O)c3nn4c(c3-c3ccccc3)COCC4)CC2)n1 [Example 70]
21 | 38.5% | 24.3% |  |  | O=C(c1c(-c2ccccc2F)nn2c1COCC2)N1CC2CN(c3nc4cc(Cl)ccc4o3)CC2C1 (stereo not drawn) [Example 51]
22 | 100% | 96% |  |  | C[C@@H]1CCN(c2nc3cc(Cl)ccc3o2)CCN1C(=O)c1c(-c2ccccn2)nn2ccccc12 [Example 63]
23 | 98.5% | 94.5% |  |  | C[C@@H]1CCN(c2nc3cc(Cl)ccc3o2)CCN1C(=O)c1c(-c2ccccc2)nc2ccccn12 [Example 5]

Continued, compound first:

Row | Compound | inhibition at 1 µM (human orexin-1 receptor) | inhibition at 1 µM (human orexin-2 receptor) | OXIR % Inh. @ 1 uM (human orexin-1 receptor) | OX2R % Inh. @ 1uM (human orexin-2 receptor)
24 | COc1ccc(N2CC[C@@H](C)N(C(=O)c3c(-c4ccccc4)nn4c3COCC4)CC2)cn1 [Example 16] | -21.1% | 3.3% |  | 
25 | C[C@@H]1CCN(c2ccc(C(F)(F)F)cn2)CCN1C(=O)c1c(-c2ncccn2)nn2ccccc12 [Example 62] | 100% | 44% |  | 
26 | C[C@@H]1CCN(c2ccc(C(F)(F)F)cn2)CCN1C(=O)c1ccnn1-c1ccccc1 [Example 101] | 19% | 32% |  | 
27 | C[C@@H]1CCN(c2ccc(F)cn2)CCN1C(=O)c1c(-c2ccccc2)nn2c1COCC2 [Example 25] | 11.6% | 7.7% |  | 
28 | COc1ccc(N2CC[C@@H](C)N(C(=O)c3nn4c(c3-c3ccccc3)OCCC4)CC2)nc1 [Example 79] | 45% | 21% |  | 
29 | C[C@@H]1CCN(c2nc3cc(Cl)ccc3o2)CCN1C(=O)c1c(-c2ccccc2)nn2c1COCC2 [Example 7] | 91% | 54.5% |  | 
30 | O=C(c1c(-c2ccccc2)nn2c1COCC2)N1CCCN(c2nc3cc(Cl)ccc3o2)CC1 [Example 2] | 64.2% | 43.4% |  | 
31 | C[C@@H]1CCN(c2nc3cc(Cl)ccc3o2)CCN1C(=O)c1nc2n(c1-c1ccccc1)CCCC2 [Example 9] | 49.6% | 12.2% |  | 
32 | C[C@@H]1CN(c2cnc(C(F)(F)F)cn2)CCCN1C(=O)c1c(-c2ccccc2)nn2cccnc12 [Example 91] | 87% | 74% |  | 
33 | COc1ccc(N2CC[C@@H](C)N(C(=O)c3nn4ccccc4c3-c3ccccc3)CC2)nc1 [Example 78] | 90% | 52% |  | 
34 | C[C@@H]1CCN(c2nc3cc(Cl)ccc3o2)CCN1C(=O)c1nn2c(c1-c1ccccc1)OCCC2 [Example 59] | 99% | 97% |  | 
35 | C[C@@H]1CCN(c2ccc(C(F)(F)F)cn2)CCN1C(=O)c1nn2c(c1-c1ccccc1)COCC2 [Example 58] | 94% | 30% |  | 
36 | C[C@@H]1CCN(c2nc3cc(Cl)ccc3o2)CCN1C(=O)c1c(-c2ccccc2)nc2n1CCCC2 [Example 6] | 62.5% | 33.4% |  | 
37 | C[C@@H]1CCN(c2ccc(C(F)(F)F)cn2)CCN1C(=O)c1nn2c(c1-c1ccccc1)OCCC2 [Example 60] | 97% | 81% |  | 
38 | C[C@@H]1CCN(c2cnc(C(F)(F)F)cn2)CCN1C(=O)c1c(-c2ncccn2)nn2ccccc12 [Example 94] |  |  | 43% | 21%
39 | COc1ccc(N2CC[C@@H](C)N(C(=O)c3c(-c4ccccc4)nn4c3COCC4)CC2)nc1 [Example 12] | 14.7% | 25% |  | 

From patent US20260256807A1, “SUBSTITUTED PYRAZOLES AND IMIDAZOLES AS OREXIN RECEPTOR ANTAGONISTS COMPOSITION, METHODS FOR TREATING NEUROLOGICAL AND PSYCHOLOGICAL DISORDERS” (HAGER BIOSCIENCES, LLC, priority 2022, published 2026)
